Measurements: ChEMBL document CHEMBL4351009, “hERG optimizations of IMB1603, discovery of alternative benzothiazinones as new antitubercular agents” (Eur J Med Chem, 2019)
In brackets after ≈: the same amount, converted by molar mass.

Legend:
[1] = system: Mycobacterium tuberculosis; test: Antimycobacterial activity against multidrug resistance Mycobacterium tuberculosis 16995 clinical isolate assessed as reduction in bacterial cell viability incubated for 7 days by microplate alamar blue assay; type: functional; conditions: Mycobacterium tuberculosis, 16995, 168 h
[2] = system: Mycobacterium tuberculosis; test: Antimycobacterial activity against multidrug resistance Mycobacterium tuberculosis 16883 clinical isolate assessed as reduction in bacterial cell viability incubated for 7 days by microplate alamar blue assay; type: functional; conditions: Mycobacterium tuberculosis, 16883, 168 h

O=c1nc(N2CC3CCC2CN3Cc2ccc(F)cc2)sc2c([N+](=O)[O-])cc(C(F)(F)F)cc12 (stereo not given)
MIC [1]: < 0.035 µM
MIC [2]: 0.062 µM (≈ 0.0307 µg/mL)

O=c1nc(N2CCC3(CCN(c4ccc(F)cc4)C3)CC2)sc2c([N+](=O)[O-])cc(C(F)(F)F)cc12
MIC [1]: < 0.035 µM
MIC [2]: < 0.035 µM

NNC(=O)c1ccncc1 [ISONIAZID]
MIC [1]: > 40 µM
MIC [2]: > 40 µM

O=c1nc(N2CCN(CC3CCCCC3)CC2)sc2c([N+](=O)[O-])cc(C(F)(F)F)cc12 [MACOZINONE]
MIC [1]: < 0.035 µM
MIC [2]: < 0.035 µM

CO[C@H]1/C=C/O[C@@]2(C)Oc3c(C)c(O)c4c(O)c(c(/C=N/N5CCN(C)CC5)c(O)c4c3C2=O)NC(=O)/C(C)=C\C=C\[C@H](C)[C@H](O)[C@@H](C)[C@@H](O)[C@@H](C)[C@H](OC(C)=O)[C@@H]1C [RIFAMPIN]
MIC [1]: > 40 µM
MIC [2]: > 40 µM
